Data reported in publication PMC5672791 (Journal of medicinal chemistry, 2015).
Read-outs that look alike come from different tables or passages of the source. Where a SMILES comes first, the peptide text is derived from it. Bridges are numbered along the chain shown (N, C = ends). Where no end group is shown, it is not given here. [ ]: non-standard residue; d: D form.

Tests used:
mMC3R = mMC3R (Mus musculus, UniProt P33033); type: cell-based
mMC4R [1] = biological target: T1, mMC4R (Mus musculus, UniProt P56450); type: cell-based
mMC4R (Mus musculus) = mMC4R (Mus musculus) (UniProt P56450); experiment: Schild analysis; conditions: cited from earlier work
mMC4R [2] = biological target: T1, mMC4R; conditions: cited from earlier work

mMC3R, sequence (P33033 whole entry): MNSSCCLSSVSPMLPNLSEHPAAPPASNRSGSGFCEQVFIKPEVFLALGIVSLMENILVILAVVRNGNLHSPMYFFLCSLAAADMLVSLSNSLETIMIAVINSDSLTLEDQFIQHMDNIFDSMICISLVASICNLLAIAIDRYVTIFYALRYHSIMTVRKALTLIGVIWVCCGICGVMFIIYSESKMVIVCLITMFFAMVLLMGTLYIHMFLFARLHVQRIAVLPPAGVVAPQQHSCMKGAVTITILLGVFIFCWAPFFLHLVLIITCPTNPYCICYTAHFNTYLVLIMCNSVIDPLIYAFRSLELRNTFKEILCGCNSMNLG
T1 sequence (P56450 whole entry): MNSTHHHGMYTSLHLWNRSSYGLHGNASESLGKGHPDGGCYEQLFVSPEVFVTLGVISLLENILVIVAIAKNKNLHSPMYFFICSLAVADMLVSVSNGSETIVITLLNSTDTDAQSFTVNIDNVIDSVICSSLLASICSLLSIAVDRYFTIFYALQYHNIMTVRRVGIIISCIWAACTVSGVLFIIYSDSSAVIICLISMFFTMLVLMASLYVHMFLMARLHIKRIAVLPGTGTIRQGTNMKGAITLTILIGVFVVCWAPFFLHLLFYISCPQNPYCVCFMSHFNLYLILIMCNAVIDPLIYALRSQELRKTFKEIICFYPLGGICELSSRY

Molecule: C[C@@H]1NC(=O)[C@H](CC(N)=O)NC(=O)[C@H](Cc2ccccc2)NC(=O)[C@@H]2Cc3ccccc3CN2C(=O)[C@H](CCCNC(=N)N)NC(=O)[C@@H]2CCCN2C(=O)[C@H]2CCCN2C(=O)[C@H](Cc2ccccc2)NC1=O [Peptide 8, c[Pro-Arg-Tic-Phe-Asn-Ala-Phe-DPro]]
- no activity at the mMC3R up to (concentration) (mMC3R): > 100 µM
- no activity at the mMC4R up to (concentration) (mMC4R [1]): > 100 µM

Molecule: C[C@@H]1NC(=O)[C@H](CC(N)=O)NC(=O)[C@H](Cc2ccccc2)NC(=O)[C@H](Cc2ccc3ccccc3c2)NC(=O)[C@H](CCCNC(=N)N)NC(=O)[C@@H]2CCCN2C(=O)[C@H]2CCCN2C(=O)[C@H](Cc2ccccc2)NC1=O [Peptide 13, c [Pro-Arg-Nal(2′)-Phe-Asn-Ala-Phe-DPro]]
- fold decreased antagonist potency at the mMC4R compared to 6 (mMC4R [1]): 5 fold

Molecule: C[C@@H]1NC(=O)[C@H](CC(N)=O)NC(=O)[C@H](Cc2cccc3ccccc23)NC(=O)[C@H](Cc2ccccc2)NC(=O)[C@H](CCCNC(=N)N)NC(=O)[C@@H]2CCCN2C(=O)[C@H]2CCCN2C(=O)[C@H](Cc2ccccc2)NC1=O [Peptide 19, c[Pro-Arg-Phe-Nal(1′)-Asn-Ala-Phe-DPro]]
- fold decreased antagonist potency at the mMC3R compared to 6 (mMC3R; compared to 6): 6 fold

Molecule: C[C@@H]1NC(=O)CNC(=O)[C@H](Cc2ccccc2)NC(=O)[C@H](Cc2ccccc2)NC(=O)[C@H](CCCNC(=N)N)NC(=O)[C@@H]2CCCN2C(=O)[C@H]2CCCN2C(=O)[C@H](Cc2ccccc2)NC1=O [Peptide 21, c[Pro-Arg-Phe-Phe-Gly-Ala-Phe-DPro]]
- fold increased antagonist potency at the mMC3R compared to 6 (mMC3R; compared to 6): 16 fold
- fold increased antagonist potency at the mMC4R compared to 6 (mMC4R [1]): 5 fold

Molecule: hAGRP(109-118)
- Ki (mMC4R (Mus musculus)): 160 nM

Molecule: C[C@@H]1NC(=O)[C@H](CC(N)=O)NC(=O)[C@H](Cc2ccccc2)NC(=O)[C@H](CCc2ccccc2)NC(=O)[C@H](CCCNC(=N)N)NC(=O)[C@@H]2CCCN2C(=O)[C@H]2CCCN2C(=O)[C@H](Cc2ccccc2)NC1=O [Peptide 10, c[Pro-Arg-hPhe-Phe-Asn-Ala-Phe-DPro]]
- fold decreased antagonist potency at the mMC4R compared to 6 (mMC4R [1]): 5 fold

Molecule: YCRFFNAFCY (disulfide 2-9) [hAGRP (109-118)]
- mMC4R antagonist pA2 (mMC4R [2]): 6.8
- mMC4R antagonist pA2 (mMC4R [2]; previously reported values): 6.8±0.2

Molecule: C[C@@H]1NC(=O)[C@H](CC(N)=O)NC(=O)[C@H](Cc2ccc3ccccc3c2)NC(=O)[C@H](Cc2ccccc2)NC(=O)[C@H](CCCNC(=N)N)NC(=O)[C@@H]2CCCN2C(=O)[C@H]2CCCN2C(=O)[C@H](Cc2ccccc2)NC1=O [Peptide 20, c[Pro-Arg-Phe-Nal(2′)-Asn-Ala-Phe-DPro]]
- no activity at the mMC3R up to (concentration) (mMC3R): > 100 µM

Molecule: C[C@@H]1NC(=O)[C@H](CCCCN)NC(=O)[C@H](Cc2ccccc2)NC(=O)[C@H](Cc2ccccc2)NC(=O)[C@H](CCCNC(=N)N)NC(=O)[C@@H]2CCCN2C(=O)[C@H]2CCCN2C(=O)[C@H](Cc2ccccc2)NC1=O [Peptide 25, c[Pro-Arg-Phe-Phe-Lys-Ala-Phe-DPro]]
- fold increased antagonist potency at the mMC4R compared to 6 (mMC4R [1]): 4 fold

Molecule: C[C@@H]1NC(=O)[C@H](CC(N)=O)NC(=O)[C@@H]2Cc3ccccc3CN2C(=O)[C@H](Cc2ccccc2)NC(=O)[C@H](CCCNC(=N)N)NC(=O)[C@@H]2CCCN2C(=O)[C@H]2CCCN2C(=O)[C@H](Cc2ccccc2)NC1=O [Peptide 15, c[Pro-Arg-Phe-Tic-Asn-Ala-Phe-DPro]]
- no activity at the mMC3R up to (concentration) (mMC3R): > 100 µM
- no activity at the mMC4R up to (concentration) (mMC4R [1]): > 100 µM

Molecule: C[C@@H]1NC(=O)[C@H](CCCNC(=N)N)NC(=O)[C@H](Cc2ccccc2)NC(=O)[C@H](Cc2ccccc2)NC(=O)[C@H](CCCNC(=N)N)NC(=O)[C@@H]2CCCN2C(=O)[C@H]2CCCN2C(=O)[C@H](Cc2ccccc2)NC1=O [Peptide 26, c[Pro-Arg-Phe-Phe-Arg-Ala-Phe-DPro]] (cyclo(RFFRAF[dP]P))
- fold increased antagonist potency at the mMC4R compared to 6 (mMC4R [1]): 5 fold
